Assays:
Experiment in all cases: relative viability (nuclei count vs DMSO), 5 days (fraction); higher = more cells survive
JZL-184 + Foretinib = compound: C1CN(CCC1C(C2=CC3=C(C=C2)OCO3)(C4=CC5=C(C=C4)OCO5)O)C(=O)OC6=CC=C(C=C6)[N+](=O)[O-] [JZL-184] + COc1cc2c(Oc3ccc(NC(=O)C4(C(=O)Nc5ccc(F)cc5)CC4)cc3F)ccnc2cc1OCCCN1CCOCC1 [Foretinib] (partner 0.25 µM)
How it was run: (§1)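 Lung cancer cell lines were pin-tool dosed in 1536-well plates on the day after seeding, with either a lone drug or a fixed anchor-drug dose plus five library-drug doses (not always all listed) in √10 steps. Nuclei were counted on 4× images after 5 days. Relative viability is the ratio of treated-well to vehicle-well nuclei counts, with each value a median of duplicate plates.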

JZL-184 + Dasatinib = compound: C1CN(CCC1C(C2=CC3=C(C=C2)OCO3)(C4=CC5=C(C=C4)OCO5)O)C(=O)OC6=CC=C(C=C6)[N+](=O)[O-] [JZL-184] + Cc1nc(Nc2ncc(C(=O)Nc3c(C)cccc3Cl)s2)cc(N2CCN(CCO)CC2)n1 [Dasatinib] (partner 0.075 µM)
How it was run: as §1

JZL-184 + Decitabine = compound: C1CN(CCC1C(C2=CC3=C(C=C2)OCO3)(C4=CC5=C(C=C4)OCO5)O)C(=O)OC6=CC=C(C=C6)[N+](=O)[O-] [JZL-184] + Nc1ncn([C@H]2C[C@H](O)[C@@H](CO)O2)c(=O)n1 [Decitabine] (partner 2 µM)
How it was run: as §1

JZL-184 + Navitoclax = compound: C1CN(CCC1C(C2=CC3=C(C=C2)OCO3)(C4=CC5=C(C=C4)OCO5)O)C(=O)OC6=CC=C(C=C6)[N+](=O)[O-] [JZL-184] + CC1(C)CCC(c2ccc(Cl)cc2)=C(CN2CCN(c3ccc(C(=O)NS(=O)(=O)c4ccc(N[C@H](CCN5CCOCC5)CSc5ccccc5)c(S(=O)(=O)C(F)(F)F)c4)cc3)CC2)C1 [Navitoclax] (partner 0.5 µM)
How it was run: as §1

JZL-184 + Olaparib = compound: C1CN(CCC1C(C2=CC3=C(C=C2)OCO3)(C4=CC5=C(C=C4)OCO5)O)C(=O)OC6=CC=C(C=C6)[N+](=O)[O-] [JZL-184] + O=C(c1cc(Cc2n[nH]c(=O)c3ccccc23)ccc1F)N1CCN(C(=O)C2CC2)CC1 [Olaparib] (partner 8 µM)
How it was run: as §1

| Cell Line | relative viability (JZL-184 + Foretinib; first compound 0.04 µM) | relative viability (JZL-184 + Foretinib; first compound 0.4 µM) | relative viability (JZL-184 + Foretinib; first compound 1.265 µM) | relative viability (JZL-184 + Foretinib; first compound 4 µM) | relative viability (JZL-184 + Dasatinib; first compound 0.04 µM) | relative viability (JZL-184 + Dasatinib; first compound 0.4 µM) | relative viability (JZL-184 + Dasatinib; first compound 1.265 µM) | relative viability (JZL-184 + Dasatinib; first compound 4 µM) | relative viability (JZL-184 + Decitabine; first compound 0.04 µM) | relative viability (JZL-184 + Decitabine; first compound 0.4 µM) | relative viability (JZL-184 + Decitabine; first compound 1.265 µM) | relative viability (JZL-184 + Decitabine; first compound 4 µM) | relative viability (JZL-184 + Navitoclax; first compound 0.04 µM) | relative viability (JZL-184 + Navitoclax; first compound 0.4 µM) | relative viability (JZL-184 + Navitoclax; first compound 1.265 µM) | relative viability (JZL-184 + Navitoclax; first compound 4 µM) | relative viability (JZL-184 + Olaparib; first compound 0.04 µM) | relative viability (JZL-184 + Olaparib; first compound 0.4 µM) | relative viability (JZL-184 + Olaparib; first compound 1.265 µM) | relative viability (JZL-184 + Olaparib; first compound 4 µM) |
| --- | --- | --- | --- | --- | --- | --- | --- | --- | --- | --- | --- | --- | --- | --- | --- | --- | --- | --- | --- | --- |
| NCI-H1355 | 1.06 | 0.936 | 1.01 | 0.929 | 0.723 | 0.662 | 0.783 | 0.672 | 0.349 | 0.34 | 0.36 | 0.347 | 0.848 | 0.925 | 1.08 | 0.861 | 0.775 | 0.708 | 0.78 | 0.707 |
| NCI-H460 | 1.03 | 0.904 | 0.957 | 1.02 | 0.62 | 0.394 | 0.553 | 0.503 | 0.629 | 0.45 | 0.463 | 0.442 | 1.37 | 1.02 | 1.02 | 1.12 | 0.337 | 0.427 | 0.458 | 0.394 |
| NCI-H1993 | 0.769 | 0.669 | 0.758 | 0.816 | 0.498 | 0.617 | 0.709 | 0.674 | 0.572 | 0.588 | 0.577 | 0.559 | 0.906 | 0.884 | 1.06 | 1.03 | 1.11 | 1.05 | 1.13 | 0.966 |
| ChaGo-K-1 | 0.981 | 0.872 | 0.96 | 0.911 | 0.657 | 0.581 | 0.61 | 0.595 | 0.505 | 0.498 | 0.514 | 0.526 | 1.47 | 0.896 | 1.29 | 0.962 | 0.485 | 0.411 | 0.447 | 0.41 |
| HCC-15 | 1.25 | 1.01 | 1.11 | 1.03 | 0.647 | 0.673 | 0.677 | 0.524 | 0.625 | 0.692 | 0.647 | 0.575 | 0.754 | 0.704 | 0.759 | 0.703 | 0.725 | 0.685 | 0.771 | 0.736 |
| NCI-H23 | 0.913 | 1.01 | 1.15 | 1.01 | 0.896 | 0.81 | 0.864 | 0.751 | 0.275 |  | 0.266 | 0.328 | 1.01 | 0.63 | 0.837 | 0.777 | 0.388 |  | 0.303 | 0.366 |
| NCI-H1395 | 0.918 | 0.972 | 0.965 | 0.856 | 0.424 | 0.435 | 0.414 | 0.404 | 0.756 | 0.656 | 0.792 | 0.64 | 1.49 | 1.22 | 1.18 | 1.02 | 0.486 | 0.458 | 0.407 | 0.444 |
| NCI-H1666 | 1.07 | 0.895 | 0.942 | 1 | 0.842 | 0.861 | 0.764 | 0.783 | 0.77 | 0.557 | 0.701 | 0.792 | 1.02 | 0.825 | 1.16 | 1.02 | 0.755 | 0.716 | 0.712 | 0.735 |

Source: the supplement of paper PMC10307832
